Experimental data taken from ChEMBL document CHEMBL3882727, “Imidazopyridine Kinase Inhibitors” (2008).

How the values were obtained:
[1] = biological target: T1, Insulin-like growth factor 1 receptor (Homo sapiens, UniProt P08069); assay: Inhibition of human GST-rTEV-tagged IGF1R (957 to 1367 residues) expressed in baculovirus infected insect Sf9 cells assessed as decrease in biotin-aminohexyl-AEEEEYMMMMAKKKK-NH2 phosphorylation after 1 hr by fluorometer
[2] = biological target: T2, Insulin receptor (Homo sapiens, UniProt P06213); assay: Inhibition of human GST-rTEV-tagged insulin receptor (979 to 1382 residues) expressed in baculovirus infected insect Sf9 cells assessed as decrease in biotin-aminohexyl-AEEEEYMMMMAKKKK-NH2 phosphorylation after 1 hr by fluorometer
[3] = biological target: T1, Insulin-like growth factor 1 receptor; assay: Inhibition of IGF1-induced human IGF1R autophosphorylation expressed in mouse NIH-3T3 cells preincubated for 2 hrs followed by IGF-1 induction measured after 15 mins by DELFIA; type: cell-based, NIH3T3
[4] = biological target: T2, Insulin receptor; assay: Inhibition of insulin-induced human insulin receptor autophosphorylation expressed in mouse NIH-3T3 cells preincubated for 2 hrs followed by insulin induction measured after 15 mins by DELFIA; type: cell-based, NIH3T3
[5] = Cytotoxicity against human COLO205 cells assessed as cell growth inhibition after 72 hrs by Cell Titre Glo assay; type: functional, cell-based; details: COLO 205, 72 h
[6] = Cytotoxicity against human NCI-H929 cells assessed as cell growth inhibition after 72 hrs by Cell Titre Glo assay; type: functional, cell-based; details: NCI-H929, 72 h
[7] = Toxicity in nude mouse allografted with mouse LISN cells assessed as body weight loss at 30 mg/kg, qd for 21 days measured during compound dosing; type: organism-based; details: in vivo, 504 h
[8] = Toxicity in nude mouse allografted with mouse LISN cells assessed as body weight loss at 15 mg/kg, bid for 21 days measured during compound dosing; type: organism-based; details: in vivo, 504 h
[9] = Toxicity in nude mouse allografted with mouse LISN cells assessed as body weight loss at 30 mg/kg, qd for every 3 days per week for 3 weeks measured during compound dosing; type: organism-based; details: in vivo
[10] = Toxicity in nude mouse xenografted with human COLO205 cells assessed as body weight loss at 100 mg/kg, qd for 21 days measured within 10 days of compound dosing relative to vehicle-treated control; type: organism-based, COLO 205; details: in vivo
[11] = Toxicity in nude mouse xenografted with human COLO205 cells assessed as body weight loss at 30 mg/kg, bid for 21 days measured within 10 days of compound dosing relative to vehicle-treated control; type: organism-based, COLO 205; details: in vivo
[12] = Antitumor activity against human COLO205 cells xenografted in nude mouse assessed as tumor growth inhibition at 10 mg/kg, qd for 21 days relative to vehicle-treated control; type: functional; details: COLO 205, 504 h, read-out: TGI
[13] = Toxicity in nude mouse xenografted with human COLO205 cells assessed as body weight loss at 10 to 30 mg/kg, bid for 21 days measured during compound dosing; type: organism-based, COLO 205; details: in vivo, 504 h
[14] = Toxicity in nude mouse xenografted with human BT474 cells assessed as body weight loss at 15 to 60 mg/kg, qd for 3 weeks without dosing on weekends measured during compound dosing; type: organism-based, BT-474; details: in vivo, 504 h
[15] = Toxicity in nude mouse xenografted with human BT474 cells assessed as body weight loss at 15 mg/kg, bid for 3 weeks without dosing on weekends measured during compound dosing; type: organism-based, BT-474; details: in vivo, 504 h
[16] = Growth inhibition of human MDA-MB-453 cells assessed as combination index in presence of lapatinib after 3 days by methylene blue staining-based assay; type: functional
[17] = Growth inhibition of human MDA-MB-468 cells assessed as combination index in presence of lapatinib after 3 days by methylene blue staining-based assay; type: functional
[18] = Growth inhibition of human MCF7 cells assessed as combination index in presence of lapatinib after 3 days by methylene blue staining-based assay; type: functional
[19] = Growth inhibition of human A549 cells assessed as combination index in presence of lapatinib after 3 days by methylene blue staining-based assay; type: functional

T2 sequence (P06213 28-758 limits assumed): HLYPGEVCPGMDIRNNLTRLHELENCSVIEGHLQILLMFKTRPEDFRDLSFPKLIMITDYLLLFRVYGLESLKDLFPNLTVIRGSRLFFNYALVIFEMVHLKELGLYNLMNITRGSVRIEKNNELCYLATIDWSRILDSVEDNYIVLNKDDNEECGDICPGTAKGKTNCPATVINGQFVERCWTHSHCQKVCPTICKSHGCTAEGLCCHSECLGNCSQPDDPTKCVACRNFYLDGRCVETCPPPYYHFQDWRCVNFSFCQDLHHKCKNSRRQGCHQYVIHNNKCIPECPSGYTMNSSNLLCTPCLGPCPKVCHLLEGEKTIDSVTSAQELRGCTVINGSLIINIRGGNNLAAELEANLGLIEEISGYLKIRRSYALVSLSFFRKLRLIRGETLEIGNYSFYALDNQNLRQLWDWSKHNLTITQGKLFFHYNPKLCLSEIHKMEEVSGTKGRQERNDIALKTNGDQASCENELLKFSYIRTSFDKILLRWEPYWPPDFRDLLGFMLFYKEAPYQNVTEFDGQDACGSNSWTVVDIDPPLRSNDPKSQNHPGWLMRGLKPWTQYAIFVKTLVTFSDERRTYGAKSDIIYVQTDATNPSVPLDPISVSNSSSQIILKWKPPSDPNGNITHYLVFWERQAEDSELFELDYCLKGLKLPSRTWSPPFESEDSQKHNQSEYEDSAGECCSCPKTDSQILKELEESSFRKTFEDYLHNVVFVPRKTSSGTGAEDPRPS
T2 sequence (P06213 763-1382 limits assumed): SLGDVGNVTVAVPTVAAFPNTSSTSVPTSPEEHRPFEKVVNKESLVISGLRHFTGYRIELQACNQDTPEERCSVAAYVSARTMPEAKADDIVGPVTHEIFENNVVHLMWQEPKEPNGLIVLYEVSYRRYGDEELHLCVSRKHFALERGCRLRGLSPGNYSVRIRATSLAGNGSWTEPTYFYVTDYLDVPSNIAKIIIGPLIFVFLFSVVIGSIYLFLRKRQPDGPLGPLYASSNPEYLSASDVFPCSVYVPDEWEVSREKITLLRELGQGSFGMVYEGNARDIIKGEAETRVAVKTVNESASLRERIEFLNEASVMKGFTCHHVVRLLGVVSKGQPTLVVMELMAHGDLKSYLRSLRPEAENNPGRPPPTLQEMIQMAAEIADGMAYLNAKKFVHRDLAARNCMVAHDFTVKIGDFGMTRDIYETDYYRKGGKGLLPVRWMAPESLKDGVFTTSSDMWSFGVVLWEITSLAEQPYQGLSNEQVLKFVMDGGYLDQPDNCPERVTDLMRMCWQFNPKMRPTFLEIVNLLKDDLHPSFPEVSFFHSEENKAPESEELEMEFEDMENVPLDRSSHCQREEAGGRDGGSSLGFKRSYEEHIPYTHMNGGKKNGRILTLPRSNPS

Row | SMILES | IC50 [1] [nM] | IC50 [2] [nM] | IC50 [4] [nM] | also measured
1 | CCOc1cc(C2CCN(CCS(C)(=O)=O)CC2)ccc1Nc1nccc(-c2c(-c3ccc(OC)c(C(=O)Nc4c(F)cccc4F)c3)nc3ccccn23)n1 | < 100 | < 100 | < 100 | –
2 | COc1cc(N2CCC(N3CCN(CCF)CC3)CC2)c(Cl)cc1Nc1nccc(-c2c(-c3cccc(C(=O)Nc4c(F)cccc4F)c3)nc3ccccn23)n1 | – | – | – | IC50 [5]: 250 to 1000 nM; IC50 [6]: < 250 nM
3 | COc1cc(N2CCC(N3CCN(CCF)CC3)CC2)ccc1Nc1nccc(-c2c(-c3cccc(C(=O)Nc4c(F)cccc4F)c3)nc3ccccn23)n1 | – | – | – | Activity [7]: Non-Toxic; Activity [8]: Non-Toxic; Activity [9]: Toxic; Activity [10]: > 20%; Activity [11]: > 20%; inhibition in vivo at 10 mg/kg [12]: 42%; Activity [13]: Non-Toxic; Activity [14]: Non-Toxic; Activity [15]: Non-Toxic; CI [16]: 0.31; CI [17]: 0.78 - 1.25; CI [18]: 1; CI [19]: <1
4 | CCOc1ccc(-c2nc3ccccn3c2-c2ccnc(Nc3ccc(C4CCN(CCS(C)(=O)=O)CC4)cc3OC)n2)cc1C(=O)Nc1c(F)cccc1F | < 100 | < 100 | < 100 | –
5 | COc1cc(N2CCC(N3CCN(CCS(C)(=O)=O)CC3)CC2)c(C)cc1Nc1nccc(-c2c(-c3cccc(C(=O)Nc4c(F)cccc4F)c3)nc3ccccn23)n1 | < 100 | < 100 | < 100 | –

Continued, in another order:

Row | IC50 [1] [nM] | IC50 [2] [nM] | IC50 [4] [nM] | SMILES | also measured
6 | < 100 | < 100 | – | COc1cc(N2CCC(CCS(C)(=O)=O)CC2)ccc1Nc1nccc(-c2c(-c3ccc(OC)c(C(=O)Nc4c(F)cccc4F)c3)nc3cc(F)ccn23)n1 | –
7 | < 100 | < 100 | > 500 | COc1cc(N2CCC(N3CCCCC3)CC2)ccc1Nc1nccc(-c2c(-c3cccc(C(=O)Nc4c(F)cccc4F)c3)nc3cc(C(F)(F)F)ccn23)n1 | IC50 [3]: 100 to 500 nM
8 | < 100 | < 100 | < 100 | COc1cc(N2CCC(N3CCN(S(C)(=O)=O)CC3)CC2)ccc1Nc1nccc(-c2c(-c3ccc(OC)c(C(=O)Nc4c(F)cccc4F)c3)nc3ccccn23)n1 | –
9 | 100 to 1000 | < 100 | < 100 | CCOc1cc(N2CCN(CCS(C)(=O)=O)CC2)c(C)cc1Nc1nccc(-c2c(-c3ccc(OC(C)C)c(C(=O)Nc4c(F)cccc4F)c3)nc3ccccn23)n1 | IC50 [3]: < 100 nM
10 | < 100 | < 100 | – | CCOc1cc(N2CCC(CCS(C)(=O)=O)CC2)c(C)cc1Nc1nccc(-c2c(-c3ccc(OC)c(C(=O)Nc4c(F)cccc4F)c3)nc3cc(F)ccn23)n1 | –
